experiment: Human HepG2 cell viability assay in 384 well format; type: toxicity, cell-based; design: dose 125 nL, time 70.5 hour; cytotoxicity at 70.5 h: concentration not given beside the values; conditions: HepG2 cells, read-out: Inhibition

SMILES | cytotoxicity at 70.5 h [%]
Cc1cnn(C2CN(CC(=O)N(C)Cc3cccs3)C2)c1 | -11.5
O=C(c1cc[nH]n1)N(Cc1cccc(O)c1)CC1CC1 | -7.41
Cc1cc(F)ccc1-c1cc(NCCO)nc2[nH]ccc12 | 0.963
CS(=O)(=O)N1CCN(c2ccnc(N3CCCC3)n2)CC1 | -4.19
Cc1cc(NC(=O)CCNC(C)(C)c2nc(C)c(C)s2)no1 | -5.95
Cc1ccc(CNC(=O)Nc2nnc(C(C)C)s2)n1C | -4.19
O=C(COc1coc(CN2CCCCC2)cc1=O)Nc1ccccc1Cl | -9.78
O=C(CSc1ccc(Br)cc1)NS(=O)(=O)c1ccc2c(c1)OCCO2 | 4.15
COC(=O)CCCNC(=O)N1CCc2c(F)ccc(F)c2C1 | -1.47
COCc1cccc(C(=O)N2CCCCC2c2nccs2)c1 (stereo not drawn) | -8.81
CCCc1noc(CCC(=O)N2CCN(C)CC2c2ccccc2)n1 (stereo not drawn) | -15
Cc1ccnc(OCC(=O)N2CCN(c3ncccn3)CC2)n1 | -12.6
Cc1nn2c(NC(=O)CSc3ncccn3)csc2nc1=O | -12.6
Cc1noc(C)c1CC(=O)NCC(C)N1CCOCC1 (stereo not drawn) | -2.99
O=C(NCC1(O)CCOc2ccccc21)Nc1ccc2c(c1)OCO2 (stereo not drawn) | 0.267
Cc1cccc(=O)n1CCCNc1ncnc2c1CCNCC2 | -6.31
Cc1n[nH]c(C(=O)NCc2ccnc(OCC(F)(F)F)c2)c1Br | -4.39
O=C(NCCCN1CCN(c2ncccn2)CC1)Nc1ccccn1 | -2.48
O=C(c1cc(-n2cccn2)ccn1)N1CCOc2ncccc21 | -1.03
CC(O)CN1CCN(Cc2coc(-c3cccc(Cl)c3)n2)CC1 (stereo not drawn) | -1.14
CCN(C)c1ncnc2c1CCN(C(=O)N1CCCC1)CC2 | -12.4
c1cnc(N2CCO[C@H]3[C@H](OCC4CC4)CC[C@@H]32)nc1 | -7.29
Cc1cnc(CN2C[C@H]3C[C@H](Oc4ccccc4)C[C@H]3C2)cn1 | 34.2

SMILES | cytotoxicity at 70.5 h [%]
CC(NCc1ccc(OCC(N)=O)cc1)c1ccc(Cl)cc1 (stereo not drawn) | 15.5
Cc1nc(CN2C[C@@H]3CN(C(=O)[C@H]4CCCO4)C[C@@H]3C2=O)cs1 | -8.74
CC(NC(=O)NCCCN(C)S(C)(=O)=O)c1ccncc1 (stereo not drawn) | -3.33
CN(C)[C@@H]1CN(C(=O)CCc2ccccc2)[C@@H]2CCCO[C@H]12 | -3.71
CN1CCC(c2nnc(CN3CCCC3)n2C2CC2)CC1 | -6.39
CC(NC(=O)COc1ccccc1I)C1CC1 (stereo not drawn) | -1.97
Cc1nc(C)n(CC2CCCN(c3ncnc4ccsc34)C2)n1 (stereo not drawn) | 26.2
CCN(CC)c1nc2sc(C(=O)NCC(=O)OC)cc2s1 | 19.9
Cc1cc(CN2CCCCC2Cn2cncn2)no1 (stereo not drawn) | -12.8
CCc1nc(CN2CCOC(CN(C)c3cccnn3)C2)cs1 (stereo not drawn) | -7.04
CC(C)CCN1CCN(C(=O)c2c[nH]nn2)CC1 | 14
CC(=O)N1CCN(CCNS(=O)(=O)c2cccc(F)c2)CC1 | -0.607
Fc1cccc(CNCC2OCCc3cn(CC4CCOCC4)nc32)c1 (stereo not drawn) | -5.44
c1cnc2c(c1)cc([C@@H]1CCCO1)n2CCN1CCCCC1 | 0.422
O=C(c1cc(COc2ccc3c(c2)OCO3)[nH]n1)N1CCCC1 | -5.85
CCCS(=O)(=O)N1CCC(Nc2c(F)cc(C#N)cc2F)CC1 | -2.66
C1CC(CN2CCOCC3(CCN(C4CCOCC4)C3)C2)CCO1 (stereo not drawn) | -6.07
O=C(NCC1CC1)[C@H]1C[C@@H]2CCN(CCc3ccccc3)C[C@H]2O1 | -4.59
CC(C)n1cc(C(=O)NCCCc2csc(N)n2)cn1 | -9.21
c1ccc(CCn2cc(-c3nc(CN4CCOCC4)no3)nn2)cc1 | -6.91
Cc1cc(C(=O)N2CCc3nc(C4CCCCN4)ncc3C2)cs1 (stereo not drawn) | -7.25
Cc1ccc(C(=O)NCCCS(=O)(=O)c2ccccc2)c(=O)[nH]1 | -4.85
CC(C1CCN(Cc2cccc(OC(F)F)c2)CC1)N1CCOCC1 (stereo not drawn) | -9.64

SMILES | cytotoxicity at 70.5 h [%]
Cc1csc(N2CCCN(C(=O)c3ccsc3)CC2)n1 | -12
CCOc1cc(C)nc(N2CCN(C(=O)c3ccc[nH]3)CC2)n1 | -7.65
CC(C)=CCCC1(C)CCC(=O)N(CCc2nc(N)cc(O)n2)C1 (stereo not drawn) | -6.54
CCNC(=O)C1CCCN1S(=O)(=O)c1sc(=O)[nH]c1C (stereo not drawn) | -4.2
COC[C@@]12CCO[C@@H]1CCN(C(=O)c1ccc(F)c(F)c1)C2 | 0.0264
CN1[C@@H](c2ccccc2)[C@@H](C(=O)NCC2CCOCC2)C[C@@]1(C)C(=O)O | -11.8
CN(Cc1ccco1)C(=O)CN1CCCCC1Cn1cccn1 (stereo not drawn) | -12.4
COc1ccc(CNC(=O)N(C)CC(C)(C)O)cc1OC | -109
CCC1(CO)CCN(C(=O)c2cc(COc3ccccc3F)[nH]n2)CC1 | 15.1
CN1CC(=O)N(c2cccc(F)c2)CC12CCN(Cc1ccsc1)C2 (stereo not drawn) | -5.22
CNC(=O)N1CC[C@H]2N(C)CC[C@@]2(C(=O)Nc2ccccc2)CC1 | -4.01
Cc1ccc(NC(=O)Cc2cnc3n(C)c(=O)[nH]c(=O)n23)cc1 | -8.62
CNc1nc(CNC(=O)Nc2ccccc2OC(C)C)cs1 | 14
Cc1cccc(CN2C[C@H]3C[C@H](C(=O)NCc4cccnc4)[C@@H](C2)O3)c1 | 25
Cc1cccc(-c2nc(C)nn2CC(=O)N(C)C2CC2)c1 | -5.01
Cc1nn(CC(C)C)c(N(C)C)c1CNCCC(=O)NC(C)C | 23
Cc1ccn2ncc(C(=O)N3CCCC(c4noc(C)n4)C3)c2n1 (stereo not drawn) | 14.9
N#Cc1ccnc(N2CCC(c3nccn3Cc3cscn3)CC2)c1 | 31.3
CNC(=O)C1CCN(C(=O)NCc2ccc(-c3ccn[nH]3)cc2)CC1 | -3.31
CCS(=O)(=O)N1CCOC2(CCCN(c3ncc(F)cn3)C2)C1 (stereo not drawn) | -4.67
CN(C)c1cccc(C(=O)N2CCCC2c2ncc3c(n2)CCNC3)c1 (stereo not drawn) | -2.08
CNc1oc(-c2ccc(OC)c(S(=O)(=O)N(C)C)c2)nc1C#N | -9.03
O=C(COC1CCCC1)Nc1ncn(CC(=O)N2CCCCCC2)n1 | -8.06

SMILES | cytotoxicity at 70.5 h [%]
Cc1nnn2c1COCC(CNC(=O)c1ccc[nH]1)C2 (stereo not drawn) | 7.03
c1cnc(OCc2nnc3n2CCN(CC2CC2)C3)nc1 | 0.759
CCn1c(C2CCCN(Cc3ccc(F)cc3Cl)C2)nn(C)c1=O (stereo not drawn) | 6.43
OCc1cc2ccccc2nc1N1CCCC1 | -15.5
Cc1cc(C)n(CC2CCCN2C(=O)c2c[nH]c3ncccc23)n1 (stereo not drawn) | 27.2
CCn1c(CC2CCN(C(=O)c3cc(CC(C)C)on3)CC2)n[nH]c1=O | -2.52
CCC(CO)N(Cc1cccs1)C(=O)Cc1ccc(O)cc1 (stereo not drawn) | 16.3
COc1cccc(C(C(=O)O)N2CCCN(C3CCCC3)CC2)c1OC (stereo not drawn) | 20.1
CC(C)CCN1CCc2[nH]nc(C(=O)N3CC=CC3)c2C1 | -6.59
Cn1cc(CN2CCCN(C(=O)c3cc[nH]n3)CC2)cn1 | -9.96
c1ccc(C[C@H]2CN(Cc3nccs3)CC[C@@H]2OCC2CC2)cc1 | -2.59
CCCS(=O)(=O)N1CCN(c2ccc3nnc(CC)n3n2)CC1 | -12.7
c1ccc(CCc2n[nH]c(CCN3CCCCC3)n2)cc1 | -13.4
c1csc(-c2noc(C3CN(Cc4ccc5c(c4)CCO5)C3)n2)c1 | -9.73
COc1ccc(-n2nnnc2C(C)(C)Nc2ccc(C)cc2C)cc1 | 40.2
Cc1ccc(CNC(=O)c2cc(C)n(C)n2)o1 | -8.67
CCc1[nH]ncc1C(=O)N1CCCC(n2nc(C)nc2C)C1 (stereo not drawn) | 19.7
Cc1cc(-n2nc(C)nc2-c2cn(CCN)nn2)ccn1 | -6.15
O=C(CC1CC1)N1CCC(O)(CN2CCN(c3ccccc3)CC2)C1 (stereo not drawn) | 5.49
C=C(C)COc1cccc(C(=O)N(CC)Cc2nccn2C)c1 | 2.21
NC(=O)c1sc2ccccc2c1C1CCN(S(=O)(=O)N2CCOCC2)C1 (stereo not drawn) | 1.58
CCN(CC)S(=O)(=O)CC(=O)Nc1ccsc1 | -14.5
CCCc1nc(CN(CC)C(=O)c2onc3ccccc23)no1 | 17

SMILES | cytotoxicity at 70.5 h [%]
CCC1COC2(CCN(C(=O)c3ccco3)CC2)C1 (stereo not drawn) | -9.86
CC(C)(C)S(=O)(=O)c1ccc(N2CCC(n3cncn3)CC2)cn1 | 14.6
O=C(C1CCC1)N1CCCn2nc(CNc3ncccn3)cc2C1 | 1.42
O=C(NCCC(=O)N1CCCc2ccccc21)c1cc(F)cc(F)c1 | -7.42
CCCS(=O)(=O)N1CCN(C(=O)CO)CC1 | -6.95
COCc1nc(C(=O)NS(=O)(=O)c2ccc(C)c(C)c2)cs1 | 25.8
CC(C)(C)c1cc(C[C@H]2CNCC[C@H]2CC(=O)Nc2ccccc2)no1 | -2.1
COC(=O)c1ccc(N2CCC(N(C)c3ccccc3)CC2)nn1 | 3.35
CC(C)CN1CCN(C(=O)NCc2cccnc2-n2cccn2)CC1 | 3.85
CC(C)(C)OC(=O)N1CCN(c2cccnc2)CC1C(=O)O (stereo not drawn) | -0.358
CNC(=O)CC1CCN(C(=O)Nc2ccc(-c3cc[nH]n3)cc2)CC1 | -4.66
COc1cccc(CN2CCC3(CCN(c4ncc(C)cn4)CC3)C2)c1 | 1.49
CCN1CCN(c2ccc(C(=O)NCc3cc(C)no3)cc2F)CC1 | -4.13
CC(=O)N1CCN([C@@H]2CCC[C@@H](NC(=O)c3cccnc3)[C@H]2O)CC1 | -11.5
COCc1n[nH]c2c1CN(Cc1ccccn1)C2 | -9.17
Cc1ccc(C(=O)N2CCN(C(=O)NC(C)Cn3ccnc3)CC2)o1 (stereo not drawn) | -4.96
CCS(=O)(=O)CC(=O)NC(C)c1ccc(OCCC(C)C)cc1 (stereo not drawn) | -1.31
O=C(C1CC1)N1CCOC2(CCNCC2)C1 | -10.9
Cc1nnc2n1CCN(Cc1csc(Cc3ccccc3)n1)C2 | -34.1
CC(c1ccccc1)N1Cc2nc(N(C)C)ncc2C1=O (stereo not drawn) | 49
O=C(c1ccc(C2CCNC2)cc1)N1CCC(N2CCC(O)CC2)CC1 (stereo not drawn) | 3.75
